Laboratory results: patent publication US20240384268A1, “Oligonucleotides” (Hudson Institute of Medical Research, priority 2021, published 2024)
In the oligonucleotide strings, read from the 5' end, every base follows the letter of its sugar. An asterisk marks phosphorothioate; unmarked linkages are phosphodiester. Other units and linkages are bracketed, terminal groups are in braces. A string of capitals states the bases alone. e = 2'-O-(2-methoxyethyl) (MOE); d = 2'-deoxy (DNA); m = 2'-O-methyl

These substances were tested against T1, human TLR9 (Homo sapiens, UniProt Q9NR96) (assay: HEK-TLR9 NF-κB-luciferase reporter, ODN2006 stimulation). Conditions: HEK-TLR9; 500 nM 2′OMe or PS oligos; 200 nM ODN2006.
T1 construct: HA; host or cells: 293XL-hTLR9-HA (HEK293)
T1 sequence (Q9NR96 26-1032): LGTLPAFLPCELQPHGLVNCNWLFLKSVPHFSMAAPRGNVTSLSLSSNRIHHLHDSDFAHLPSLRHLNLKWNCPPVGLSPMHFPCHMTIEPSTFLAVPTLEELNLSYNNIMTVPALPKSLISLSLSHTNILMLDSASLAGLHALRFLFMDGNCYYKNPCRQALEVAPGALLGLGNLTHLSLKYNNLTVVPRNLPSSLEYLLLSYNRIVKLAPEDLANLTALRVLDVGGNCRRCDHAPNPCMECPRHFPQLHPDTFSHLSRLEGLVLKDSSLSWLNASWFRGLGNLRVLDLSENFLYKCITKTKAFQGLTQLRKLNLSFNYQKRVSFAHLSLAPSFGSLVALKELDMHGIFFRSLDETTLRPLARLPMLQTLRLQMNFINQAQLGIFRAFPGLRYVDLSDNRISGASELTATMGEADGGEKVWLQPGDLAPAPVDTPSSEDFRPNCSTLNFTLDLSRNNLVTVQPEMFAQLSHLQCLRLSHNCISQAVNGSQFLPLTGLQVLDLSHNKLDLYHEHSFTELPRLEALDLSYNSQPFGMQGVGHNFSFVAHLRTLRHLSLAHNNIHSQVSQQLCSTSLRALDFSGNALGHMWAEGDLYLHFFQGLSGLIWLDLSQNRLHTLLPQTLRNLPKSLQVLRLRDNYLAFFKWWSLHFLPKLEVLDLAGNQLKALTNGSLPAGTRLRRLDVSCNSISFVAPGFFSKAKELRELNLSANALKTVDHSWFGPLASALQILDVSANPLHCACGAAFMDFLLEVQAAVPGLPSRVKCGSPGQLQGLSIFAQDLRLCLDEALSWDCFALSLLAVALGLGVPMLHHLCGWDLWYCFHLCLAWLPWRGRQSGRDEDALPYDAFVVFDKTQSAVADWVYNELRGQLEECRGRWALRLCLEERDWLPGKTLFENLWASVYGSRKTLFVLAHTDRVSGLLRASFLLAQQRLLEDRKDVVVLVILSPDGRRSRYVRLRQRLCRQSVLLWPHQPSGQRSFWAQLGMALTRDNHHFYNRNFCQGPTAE
Type: cell-based
Procedure: In such examples, inhibition of TLR9 activity can be identified by observation of an overall decreased TLR9 response of the cell population, or a lower proportion of cells having TLR9-positive activity as compared to positive control condition in which cells are treated with TLR9 agonist in the absence of the oligonucleotide (or in the presence of an appropriate control inhibitory agent). In one example, HEK cells are transfected with TLR9 and a NF-κB reporter and incubated with an oligonucleotide and then stimulated with a TLR9 agonist. TLR9 activity can then be determined by a luciferase assay. TLR9 activity can also be analysed by measuring cytokine levels (e.g., IFN, IL-6, TNF and IL-12), for example by ELISA.
(§1) For cGAS stimulations, cells were treated for indicated duration with ASOs, prior to transfection with ISD70 (human cells) or ISD45 (mouse cells) (the ASOs were not washed off prior to ISD transfection unless otherwise indicated). The cGAS ligands ISD45 (Stetson and Medzhitov, 2006) and ISD70 (also known as VACV-70 (Unterholzner et al., 2010)) (Table 1) were resuspended as follows: 5 1d of sense and 5 μl of antisense strands at 10 μg/μl were added to 90 μl PBS under sterile conditions, heated at 75° C. for 30 min, prior to letting cool down at room temperature and aliquoting (stock at 1 μg/1 l). The ISDs were transfected at a concentration of […] at a ratio of 1 μg:1 μl with Lipofectamine 2000 in Opti-MEM (Thermo Fisher Scientific). HEK-TLR3, HEK-TLR7 and […] were treated with indicated concentration of ASOs for 20-50 min, prior to stimulation with poly(I:C) (Invivogen), R848 (Invivogen), Motolimod (MedChemExpress) and the Class B CpG oligonucleotides ODN 2006 (synthesised by IDT and resuspended in RNase-free TE buffer [Table 1]), respectively. The TLR2/1 agonist PAM3CSK4 (Invivogen), the TLR4 agonist lipopolysaccharide (Invivogen), the Class B CpG oligonucleotides ODN 1826 (synthesised by IDT and resuspended in RNase-free TE buffer), the mouse Sting agonist DMXAA (Cayman) and the human STING agonist (compound #3 from (Raanjulu et al., 2018), referred to as GSK herein—kind gift from Cancer Therapeutics CRC, Australia) were used at indicated concentrations. Aspirin (Sigma—A2093) was resuspended in pure medium to 10 mM, filter sterilised and added to the cells at 2 mM final. All ASOs were synthesised by Integrated DNA Technologies (IDT), and resuspended in RNase-free TE buffer, pH 8.0 (Thermo Fisher Scientific). Cell viability was assessed by adding 1× fresh resazurin solution to the wells (10λ solution made up with 7 mg resazurin [Sigma—R7017] dissolved in 3.5 ml PBS, sterile filtered at […]) for 4 h, prior to reading at with a Fluostar OPTIMA (BMG LABTECH) plate-reader (fluorescence: Excitation 535 nm, Emission 590); wells with medium only and 1× resazurin were used as blanks.
Following transfection, the cells were collected from the 6-wells and aliquoted into 96-wells, just before ASO and overnight TLR stimulation (as above described). Similarly, the LL171 cells expressing and ISRE-Luc reporter were treated overnight. The next day, the cells were lysed in 40 μl (for a 96-well plate) of 1× Glo Lysis buffer (Promega) for 10 min at room temperature. […] was then subjected to firefly luciferase assay using 40 μl of Luciferase Assay Reagent (Promega). Luminescence was quantified with a Fluostar OPTIMA (BMG LABTECH) luminometer.

Row | Substance | inhibition of TLR9 sensing of ODN2006 (in words)
1 | mU*mC*mC*mG*mG*G*T*C*G*T*A*G*T*T*G*mC*mU*mU*mC*mC (UCCGGGTCGTAGTTGCUUCC; antisense; sugars from the 5' end m5 d10 m5, all phosphorothioate, methylation of C not given here) [ASO11Mut2] | conferred significant TLR9 inhibition
2 | mU*mU*mC*mU*mG*G*G*G*A*C*T*T*C*C*A*mG*mU*mU*mU*mA (mU*mU*mC*mU*mG*dG*dG*dG*dA*dC*dT*dT*dC*dC*dA*mG*mU*mU*mU*mA; antisense) [ASO9] | significantly inhibited TLR9 sensing of ODN2006
3 | mG*mC*mG*mG*mU*A*T*C*C*A*T*A*G*T*C*mU*mC*mC*mA*mU (mG*mC*mG*mG*mU*dA*dT*dC*dC*dA*dT*dA*dG*dT*dC*mU*mC*mC*mA*mU; antisense) [C2-ASO2-A] | significantly better inhibitors of TLR9 than their parent ASO
4 | mC*mC*mA*mA*mC*A*C*T*T*C*G*T*G*G*G*mG*mU*mC*mC*mU (CCAACACTTCGTGGGGUCCU; antisense; sugars from the 5' end m5 d10 m5, all phosphorothioate, methylation of C not given here) [[HPRT]666] | strongly inhibited TLR9
5 | mC*mA*mU*mU*mA*G*G*T*G*C*A*G*A*A*A*mU*mC*mU*mU*mC (mC*mA*mU*mU*mA*dG*dG*dT*dG*dC*dA*dG*dA*dA*dA*mU*mC*mU*mU*mC) [ASO8] | significantly inhibited TLR9 sensing of ODN2006
6 | mC*mA*mC*mU*mU*C*G*T*G*G*G*G*T*C*C*mU*mU*mU*mU*mC (CACUUCGTGGGGTCCUUUUC; antisense; sugars from the 5' end m5 d10 m5, all phosphorothioate, methylation of C not given here) [[HPRT]662] | strongest inhibition of this series of ASOs
7 | mA*mC*mU*mU*mC*G*T*G*G*G*G*T*C*C*T*mU*mU*mU*mC*mA (ACUUCGTGGGGTCCTUUUCA; antisense; sugars from the 5' end m5 d10 m5, all phosphorothioate, methylation of C not given here) [[HPRT]661] | significantly limited inhibition
8 | mG*mG*mU*mG*mG*T*C*C*A*C*A*A*C*C*C*mC*mU*mU*mU*mC (mG*mG*mU*mG*mG*dT*dC*dC*dA*dC*dA*dA*dC*dC*dC*mC*mU*mU*mU*mC; antisense) [ASO7] | significantly inhibited TLR9 sensing of ODN2006
9 | mG*mG*mA*mG*mC*T*T*C*G*A*G*G*C*C*C*mC*mA*mG*mG*mC (mG*mG*mA*mG*mC*dT*dT*dC*dG*dA*dG*dG*dC*dC*dC*mC*mA*mG*mG*mC; antisense) [ASO6] | significantly inhibited TLR9 sensing of ODN2006

The substances below were run against T2, human TLR7 (Homo sapiens, UniProt Q9NYK1) (assay: HEK-TLR7 NF-κB-luciferase reporter, R848 stimulation). Conditions: HEK-TLR7; 400 nM 5-nt 2′OMe oligo 6 h before R848 1 μg/ml.
T2 construct: HA; host or cells: 293XL-hTLR7-HA (HEK293)
T2 sequence (Q9NYK1 27-1049): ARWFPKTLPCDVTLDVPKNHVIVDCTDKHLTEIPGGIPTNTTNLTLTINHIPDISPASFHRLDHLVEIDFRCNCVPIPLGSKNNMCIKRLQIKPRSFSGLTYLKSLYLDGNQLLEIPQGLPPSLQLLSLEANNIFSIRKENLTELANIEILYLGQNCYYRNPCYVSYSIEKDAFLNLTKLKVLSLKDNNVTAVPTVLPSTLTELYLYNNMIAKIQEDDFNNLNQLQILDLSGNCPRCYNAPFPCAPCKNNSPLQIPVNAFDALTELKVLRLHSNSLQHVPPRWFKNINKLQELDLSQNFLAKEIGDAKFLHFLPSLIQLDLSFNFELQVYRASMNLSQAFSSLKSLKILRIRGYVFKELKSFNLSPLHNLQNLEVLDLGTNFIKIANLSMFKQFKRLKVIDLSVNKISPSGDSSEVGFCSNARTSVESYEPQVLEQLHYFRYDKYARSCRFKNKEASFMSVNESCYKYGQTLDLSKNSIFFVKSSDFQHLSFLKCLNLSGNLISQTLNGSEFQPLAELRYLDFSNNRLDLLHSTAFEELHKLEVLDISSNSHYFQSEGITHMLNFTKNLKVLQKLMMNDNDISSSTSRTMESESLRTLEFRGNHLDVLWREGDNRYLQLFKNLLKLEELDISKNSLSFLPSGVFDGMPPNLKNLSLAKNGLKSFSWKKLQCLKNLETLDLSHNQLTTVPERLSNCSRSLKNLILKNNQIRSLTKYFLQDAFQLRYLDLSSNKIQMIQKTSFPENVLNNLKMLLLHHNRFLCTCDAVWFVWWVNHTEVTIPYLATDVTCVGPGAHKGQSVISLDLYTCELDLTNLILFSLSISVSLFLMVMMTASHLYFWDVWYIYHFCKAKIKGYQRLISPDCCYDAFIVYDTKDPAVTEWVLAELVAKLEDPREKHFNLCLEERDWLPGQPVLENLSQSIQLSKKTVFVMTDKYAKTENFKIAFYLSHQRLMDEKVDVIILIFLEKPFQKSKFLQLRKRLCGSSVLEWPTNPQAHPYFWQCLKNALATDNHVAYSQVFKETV
Type: cell-based
Procedure: In such examples, inhibition of TLR7 activity can be identified by observation of an overall decreased TLR7 response of the cell population, or a lower proportion of cells having TLR7-positive activity as compared to positive control condition in which cells are treated with TLR7 agonist in the absence of the oligonucleotide (or in the presence of an appropriate control inhibitory agent). In one example, 293XLhTLR7 (referred to as HEK-TLR7) cells are transfected with pNF-κB-Luc4 reporter, incubated with an oligonucleotide, and then stimulated with R848. TLR7 activity can be determined by a luciferase assay, which measures activated NF-κB by luminescence. TLR7 activity can also be analysed by measuring cytokine levels, for example by ELISA. […] TLR7 activity may then be assessed by the gene or protein expression of TLR7-responsive genes, such as Tnfα and Oas3.
as §1
Following transfection, the cells were collected from the 6-wells and aliquoted into 96-wells, just before ASO and overnight TLR stimulation (as above described). Similarly, the LL171 cells expressing and ISRE-Luc reporter were treated overnight.

Row | Substance | inhibition of R848 sensing by TLR7, 6 h pre-treatment (in words)
10 | mG*mG*mU*mA*mU [ShortMut1] | sufficient to inhibit R848 sensing
11 | mC*mG*mU*mU*mU [ShortMut1v3] | failed to do so

Same assay, conditions: HEK-TLR7; 100-500 nM oligo 20-50 min before R848 1 μg/ml

Row | Substance | inhibition of R848 sensing by TLR7, short pre-treatment (in words)
12 | mG*mG*mU*mA*mU [ShortMut1] | no inhibition was observed
13 | /52MOErT/*/i2MOErG/*/i2MOErT/*/i2MOErC/*/i2MOErC/*T*T*G*C*A*C*G*T*G*C*/i2MOErC/*/i2MOErT/*/i2MOErA/*/i2MOErA/*/32MOErG/ (TGTCCTTGCACGTGCCTAAG; sugars from the 5' end e5 d10 e5, all phosphorothioate, methylation of C not given here) [F5-Mut] | significantly less inhibitory
